Reference: ChEMBL document CHEMBL1142146, “Quinupristin-dalfopristin nonsusceptibility in pneumococci from sickle cell disease patients” (2007)
≈ marks a conversion by molar mass, not a printed value.

Experiments:
Format in all cases: functional
[1] = tested on: Streptococcus pneumoniae; assay: Antibacterial activity against Pneumococcus DAW53 isolated from sickle cell disease patient
[2] = tested on: Streptococcus pneumoniae; assay: Antibacterial activity against Pneumococcus DAW66 isolated from sickle cell disease patient
[3] = tested on: Streptococcus pneumoniae; assay: Antibacterial activity against Pneumococcus DAW13 isolated from sickle cell disease patient
[4] = tested on: Streptococcus pneumoniae; assay: Antibacterial activity against Pneumococcus DAW61 isolated from sickle cell disease patient
[5] = tested on: Streptococcus pneumoniae; assay: Antibacterial activity against Pneumococcus DAW65 isolated from sickle cell disease patient
[6] = tested on: Streptococcus pneumoniae; assay: Antibacterial activity against Pneumococcus DAW15 isolated from sickle cell disease patient
[7] = tested on: Streptococcus pneumoniae; assay: Antibacterial activity against Pneumococcus DAW22 isolated from sickle cell disease patient
[8] = tested on: Streptococcus pneumoniae; assay: Antibacterial activity against Pneumococcus DAW26 isolated from sickle cell disease patient
[9] = tested on: Streptococcus pneumoniae; assay: Antibacterial activity against Pneumococcus CDC050 isolated from sickle cell disease patient
[10] = tested on: Streptococcus pneumoniae; assay: Antibacterial activity against Pneumococcus DAW57 isolated from sickle cell disease patient
[11] = tested on: Streptococcus pneumoniae; assay: Antibacterial activity against Pneumococcus DAW19 isolated from sickle cell disease patient
[12] = tested on: Streptococcus pneumoniae; assay: Antibacterial activity against Pneumococcus DAW51 isolated from sickle cell disease patient
[13] = tested on: Streptococcus pneumoniae; assay: Antibacterial activity against Pneumococcus DAW75 isolated from sickle cell disease patient
[14] = tested on: Streptococcus pneumoniae; assay: Antibacterial activity against Pneumococcus DAW9 isolated from sickle cell disease patient
[15] = tested on: Streptococcus pneumoniae; assay: Antibacterial activity against Pneumococcus CDC068 isolated from sickle cell disease patient
[16] = tested on: Streptococcus pneumoniae; assay: Antibacterial activity against Pneumococcus CDC023 isolated from sickle cell disease patient
[17] = tested on: Streptococcus pneumoniae; assay: Antibacterial activity against Pneumococcus DAW27 isolated from sickle cell disease patient
[18] = tested on: Streptococcus pneumoniae; assay: Antibacterial activity against Pneumococcus CDC018 isolated from sickle cell disease patient
[19] = tested on: Streptococcus pneumoniae; assay: Antibacterial activity against Pneumococcus CDC063 isolated from sickle cell disease patient
[20] = tested on: Streptococcus pneumoniae; assay: Antibacterial activity against Pneumococcus DAW2 isolated from sickle cell disease patient
[21] = tested on: Streptococcus pneumoniae; assay: Antibacterial activity against Pneumococcus DAW70 isolated from sickle cell disease patient
[22] = tested on: Streptococcus pneumoniae; assay: Antibacterial activity against Pneumococcus DAW6 isolated from sickle cell disease patient
[23] = tested on: Streptococcus pneumoniae; assay: Antibacterial activity against Pneumococcus DAW86 isolated from sickle cell disease patient
[24] = tested on: Streptococcus pneumoniae; assay: Antibacterial activity against Pneumococcus DAW14 isolated from sickle cell disease patient
[25] = tested on: Streptococcus pneumoniae; assay: Antibacterial activity against Pneumococcus CDC001 isolated from sickle cell disease patient
[26] = tested on: Streptococcus pneumoniae; assay: Antibacterial activity against Pneumococcus DAW24 isolated from sickle cell disease patient
[27] = tested on: Streptococcus pneumoniae; assay: Antibacterial activity against Pneumococcus DAW12 isolated from sickle cell disease patient
[28] = tested on: Streptococcus pneumoniae; assay: Antibacterial activity against Pneumococcus DAW8 isolated from sickle cell disease patient
[29] = tested on: Streptococcus pneumoniae; assay: Antibacterial activity against Pneumococcus DAW68 isolated from sickle cell disease patient
[30] = tested on: Streptococcus pneumoniae; assay: Antibacterial activity against Pneumococcus DAW62 isolated from sickle cell disease patient
[31] = tested on: Streptococcus pneumoniae; assay: Antibacterial activity against Pneumococcus CDC020 isolated from sickle cell disease patient
[32] = tested on: Streptococcus pneumoniae; assay: Antibacterial activity against Pneumococcus CDC013 isolated from sickle cell disease patient
[33] = tested on: Streptococcus pneumoniae; assay: Antibacterial activity against Pneumococcus DAW67 isolated from sickle cell disease patient

Compound | MIC [1] [µg/mL] | MIC [2] [µg/mL] | MIC [3] [µg/mL] | MIC [4] [µg/mL] | MIC [5] [µg/mL] | MIC [6] [µg/mL] | MIC [7] [µg/mL] | MIC [8] [µg/mL] | MIC [9] [µg/mL] | MIC [10] [µg/mL] | MIC [11] [µg/mL] | MIC [12] [µg/mL] | MIC [13] [µg/mL] | MIC [14] [µg/mL] | MIC [15] [µg/mL] | MIC [16] [µg/mL] | MIC [17] [µg/mL] | MIC [18] [µg/mL] | MIC [19] [µg/mL] | MIC [20] [µg/mL] | further results
CCC[C@@H]1C[C@@H](C(=O)N[C@@H]([C@H]2O[C@H](SC)[C@H](O)[C@@H](O)[C@H]2O)[C@H](C)Cl)N(C)C1 [CLINDAMYCIN] | 0.25 (≈ 0.588 µM) | 0.25 (≈ 0.588 µM) | 0.25 (≈ 0.588 µM) | 0.5 (≈ 1.18 µM) | 0.25 (≈ 0.588 µM) | 0.38 (≈ 0.894 µM) | 256 (≈ 602 µM) | 0.25 (≈ 0.588 µM) | 0.25 (≈ 0.588 µM) | 256 (≈ 602 µM) | 0.19 (≈ 0.447 µM) | 0.25 (≈ 0.588 µM) | 0.125 (≈ 0.294 µM) | 256 (≈ 602 µM) | 0.25 (≈ 0.588 µM) | 0.125 (≈ 0.294 µM) | 256 (≈ 602 µM) | 256 (≈ 602 µM) | 0.25 (≈ 0.588 µM) | 0.25 (≈ 0.588 µM) | MIC [21]: 0.38 µg/mL (≈ 0.894 µM); MIC [22]: 0.038 µg/mL (≈ 0.0894 µM); MIC [23]: 0.25 µg/mL (≈ 0.588 µM); MIC [24]: 0.25 µg/mL (≈ 0.588 µM); MIC [25]: 0.19 µg/mL (≈ 0.447 µM); MIC [26]: 0.25 µg/mL (≈ 0.588 µM); MIC [27]: 0.25 µg/mL (≈ 0.588 µM); MIC [28]: 0.25 µg/mL (≈ 0.588 µM)
CC[C@H]1OC(=O)[C@H](C)[C@@H](O[C@H]2C[C@@](C)(OC)[C@@H](O)[C@H](C)O2)[C@H](C)[C@@H](O[C@@H]2O[C@H](C)C[C@H](N(C)C)[C@H]2O)[C@](C)(O)C[C@@H](C)C(=O)[C@H](C)[C@@H](O)[C@]1(C)O [ERYTHROMYCIN] | 0.25 (≈ 0.341 µM) | 0.19 (≈ 0.259 µM) | 4 (≈ 5.45 µM) | 256 (≈ 349 µM) | 0.19 (≈ 0.259 µM) | 0.19 (≈ 0.259 µM) | 256 (≈ 349 µM) | 0.125 (≈ 0.17 µM) | 0.25 (≈ 0.341 µM) | 256 (≈ 349 µM) | 24 (≈ 32.7 µM) | 0.19 (≈ 0.259 µM) | 0.19 (≈ 0.259 µM) | 256 (≈ 349 µM) | 0.19 (≈ 0.259 µM) | 0.125 (≈ 0.17 µM) | 256 (≈ 349 µM) | 256 (≈ 349 µM) | 32 (≈ 43.6 µM) | 0.125 (≈ 0.17 µM) | MIC [29]: 0.125 µg/mL (≈ 0.17 µM); MIC [30]: 0.125 µg/mL (≈ 0.17 µM); MIC [31]: 256 µg/mL (≈ 349 µM); MIC [21]: 0.19 µg/mL (≈ 0.259 µM); MIC [32]: 0.125 µg/mL (≈ 0.17 µM); MIC [22]: 0.25 µg/mL (≈ 0.341 µM); MIC [33]: 0.125 µg/mL (≈ 0.17 µM); MIC [23]: 0.19 µg/mL (≈ 0.259 µM); MIC [24]: 0.19 µg/mL (≈ 0.259 µM); MIC [25]: 0.19 µg/mL (≈ 0.259 µM); MIC [26]: 0.125 µg/mL (≈ 0.17 µM); MIC [27]: 0.19 µg/mL (≈ 0.259 µM); MIC [28]: 0.125 µg/mL (≈ 0.17 µM)
